Columns and labels:
PI3Kα = target: T1, PI3Kα (Homo sapiens, UniProt P42336); test: competitive fluorescence polarization kinase activity assay, PI3Kα; type: biochemical; settings: fluorescence polarization kinase kit
T1 construct: purchased Perkin–Elmer
Source text: (§1) Initially, we directly tested the inhibition potency of the synthesized compounds on PI3K by using competitive fluorescence polarization kinase kits, as mentioned in previous investigations. […] According to the significance and research maturity of the isoforms as referenced, the PI3Kα and PI3Kγ isoforms were preliminarily included here.
(§2) The competitive fluorescence polarization kinase activity assay was used to test the inhibition potency on PI3K, as mentioned in previous investigations. In general, following the instruction of the Kit (Perkin–Elmer, Waltham, MA, USA), the 10 μL scale of PI3K activity reaction was conducted with the substrate diC8-PI(4,5)P2 in a solution containing 2.5 mM MgCl2, 5 mM HEPES, […] and 10 mM DTT at pH 7.0. Into the 10 μL reaction wells with 50 ng enzyme and […], different concentrations of the tested compounds were added, respectively. The mixture was incubated at room temperature for 3 h, and the reactions were then quenched. Afterwards, the phosphoinositide binding protein and the fluorescent dye-labeled phosphoinositide tracer were added in sequence. In the dark environment in 384-well black nonbinding plates (Corning, Corning, NY, USA), the further incubation lasted for 1 h. With appropriate filters, the polarization values of the corresponding dye were recorded to calculate the enzymatic activity of PI3K in this reacting procedure. This assay was universal for evaluating the activity of different PI3K isoforms.

PI3Kγ = target: T2, PI3Kγ (Homo sapiens, UniProt P48736); test: competitive fluorescence polarization kinase activity assay, PI3Kγ; type: biochemical; settings: for IC50: fluorescence polarization kinase kit; for selectivity index: ratio of the IC50 values for PI3Kα and PI3Kγ
T2 construct: purchased Perkin–Elmer
T2 sequence (P48736 whole entry, species assumed): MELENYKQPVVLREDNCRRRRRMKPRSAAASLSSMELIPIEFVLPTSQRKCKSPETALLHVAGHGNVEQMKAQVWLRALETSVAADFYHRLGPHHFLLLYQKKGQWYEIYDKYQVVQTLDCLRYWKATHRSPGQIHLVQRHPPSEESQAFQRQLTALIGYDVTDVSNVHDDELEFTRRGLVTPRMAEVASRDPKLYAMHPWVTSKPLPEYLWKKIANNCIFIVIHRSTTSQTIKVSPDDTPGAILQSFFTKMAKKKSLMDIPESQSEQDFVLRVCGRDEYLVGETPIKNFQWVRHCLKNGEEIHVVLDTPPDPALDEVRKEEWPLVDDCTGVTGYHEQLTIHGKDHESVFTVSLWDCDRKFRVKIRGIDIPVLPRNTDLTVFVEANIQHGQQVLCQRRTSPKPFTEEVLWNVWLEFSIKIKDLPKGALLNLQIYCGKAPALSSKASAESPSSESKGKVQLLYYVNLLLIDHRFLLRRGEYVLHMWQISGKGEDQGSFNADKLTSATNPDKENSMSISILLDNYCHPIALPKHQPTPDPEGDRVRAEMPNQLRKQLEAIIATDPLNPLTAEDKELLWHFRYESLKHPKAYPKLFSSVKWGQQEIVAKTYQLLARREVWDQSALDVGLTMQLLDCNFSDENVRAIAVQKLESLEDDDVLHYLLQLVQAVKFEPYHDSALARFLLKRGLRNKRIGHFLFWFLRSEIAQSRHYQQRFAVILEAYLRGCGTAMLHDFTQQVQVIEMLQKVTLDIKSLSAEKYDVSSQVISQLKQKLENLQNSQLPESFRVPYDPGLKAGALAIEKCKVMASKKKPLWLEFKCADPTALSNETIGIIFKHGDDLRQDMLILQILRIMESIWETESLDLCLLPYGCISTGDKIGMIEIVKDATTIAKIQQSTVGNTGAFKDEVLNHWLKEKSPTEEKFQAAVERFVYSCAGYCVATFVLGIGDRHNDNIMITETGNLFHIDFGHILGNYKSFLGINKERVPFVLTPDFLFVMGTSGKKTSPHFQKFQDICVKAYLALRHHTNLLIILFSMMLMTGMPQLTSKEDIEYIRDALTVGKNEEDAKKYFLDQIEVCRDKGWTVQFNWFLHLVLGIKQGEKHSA
Source text: as §1, §2

[1] = cytotoxicity, MTT, L02 cells; type: cell-based; settings: human, L02 cells (human normal hepatocyte line)
Experimental: (§3) In this section, the anti-proliferation activity of the synthesized compounds 3a–3t was evaluated. Herein, HeLa (human epithelial cervical cancer cell line), HepG2 (human hepatoellular carcinoma cell line) and L02 (human normal hepatocyte line) cells were used. According to the affection on L02 cells, most of the tested compounds were low-toxic. […] Basically, many of the compounds in this series could inhibit the growth of HeLa and HepG2 cells effectively. The anti-proliferation inhibitory activity and the enzymatic inhibition potency indicated the consistent tendencies; the SAR of the observed anti-proliferation activity was also similar to that of the enzymatic inhibition, especially that of PI3Kγ inhibition; thus, the cellular inhibition might be caused by the effect on PI3K. […] Thus, HepG2 cells were selected to conduct further investigations at the protein level.
(§4) In this section, the cells included HeLa (human epithelial cervical cancer cell line), HepG2 (human hepatocellular cancer cell line) and L02 (human normal hepatocyte line) to evaluate the anti-proliferation activity of the synthesized compounds. The cells were cultured in Dulbecco’s modified eagle medium (DMEM, Hyclone) with the addition of 10% fetal bovine serum (FBS, BI), 2 mmol/L L-glutamine, 100 units/mL penicillin-streptomycin (Sigma-Aldrich, Saint Louis, MO, USA), […] (Hyclone, Logan, UT, USA). The environment was 5% CO2 contained atmosphere at 37 °C. The tests of anti-proliferative activity were conducted under a standard method with the typical dye 3-(4,5-dimethylthiazol-2-yl)-2,5-diphenyltetrazolium bromide (MTT) in triplicate. The LX300 Epson Diagnostic micro-plate reader (Nagano, Japan) was used to record the absorbance at 570 nm (OD570).

[2] = tested on: HeLa (human epithelial cervical cancer cell line) cells; test: anti-proliferation assay, MTT, HeLa cells; type: cell-based
Experimental: as §3, §4

[3] = tested on: HepG2 (human hepatocellular cancer cell line) cells; test: anti-proliferation assay, MTT, HepG2 cells; type: cell-based; settings: read-out: GI50 HepG2γ
Experimental: as §3, §4

T1 sequence (P42336 whole entry, species assumed): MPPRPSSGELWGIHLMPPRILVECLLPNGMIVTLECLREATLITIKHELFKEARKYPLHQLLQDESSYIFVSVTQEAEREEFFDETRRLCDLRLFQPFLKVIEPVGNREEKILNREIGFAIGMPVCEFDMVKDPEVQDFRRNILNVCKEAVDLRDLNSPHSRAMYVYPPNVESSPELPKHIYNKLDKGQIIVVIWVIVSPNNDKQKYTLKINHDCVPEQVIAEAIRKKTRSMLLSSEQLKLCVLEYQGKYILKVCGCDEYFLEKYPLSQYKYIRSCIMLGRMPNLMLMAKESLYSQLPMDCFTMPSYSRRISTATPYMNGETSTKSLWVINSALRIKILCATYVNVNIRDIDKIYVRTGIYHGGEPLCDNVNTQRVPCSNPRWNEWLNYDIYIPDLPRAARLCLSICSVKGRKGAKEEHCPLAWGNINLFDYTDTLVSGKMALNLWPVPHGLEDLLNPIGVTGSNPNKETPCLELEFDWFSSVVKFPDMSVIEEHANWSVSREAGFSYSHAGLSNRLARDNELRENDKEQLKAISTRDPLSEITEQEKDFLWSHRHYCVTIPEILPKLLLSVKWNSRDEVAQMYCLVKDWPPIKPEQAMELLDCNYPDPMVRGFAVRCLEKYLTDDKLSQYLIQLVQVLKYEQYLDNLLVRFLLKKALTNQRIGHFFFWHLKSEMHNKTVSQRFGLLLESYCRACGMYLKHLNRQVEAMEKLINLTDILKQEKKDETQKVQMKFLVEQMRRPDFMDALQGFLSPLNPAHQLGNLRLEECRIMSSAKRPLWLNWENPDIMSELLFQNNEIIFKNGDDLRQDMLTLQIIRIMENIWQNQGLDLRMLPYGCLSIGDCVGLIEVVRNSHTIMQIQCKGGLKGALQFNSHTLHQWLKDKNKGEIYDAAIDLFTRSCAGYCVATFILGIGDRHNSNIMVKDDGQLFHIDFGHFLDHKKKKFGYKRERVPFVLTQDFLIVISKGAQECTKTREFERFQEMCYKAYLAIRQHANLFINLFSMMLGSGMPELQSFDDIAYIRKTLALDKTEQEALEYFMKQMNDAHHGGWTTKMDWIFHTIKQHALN
T1 sequence (P27986 whole entry partner, species assumed): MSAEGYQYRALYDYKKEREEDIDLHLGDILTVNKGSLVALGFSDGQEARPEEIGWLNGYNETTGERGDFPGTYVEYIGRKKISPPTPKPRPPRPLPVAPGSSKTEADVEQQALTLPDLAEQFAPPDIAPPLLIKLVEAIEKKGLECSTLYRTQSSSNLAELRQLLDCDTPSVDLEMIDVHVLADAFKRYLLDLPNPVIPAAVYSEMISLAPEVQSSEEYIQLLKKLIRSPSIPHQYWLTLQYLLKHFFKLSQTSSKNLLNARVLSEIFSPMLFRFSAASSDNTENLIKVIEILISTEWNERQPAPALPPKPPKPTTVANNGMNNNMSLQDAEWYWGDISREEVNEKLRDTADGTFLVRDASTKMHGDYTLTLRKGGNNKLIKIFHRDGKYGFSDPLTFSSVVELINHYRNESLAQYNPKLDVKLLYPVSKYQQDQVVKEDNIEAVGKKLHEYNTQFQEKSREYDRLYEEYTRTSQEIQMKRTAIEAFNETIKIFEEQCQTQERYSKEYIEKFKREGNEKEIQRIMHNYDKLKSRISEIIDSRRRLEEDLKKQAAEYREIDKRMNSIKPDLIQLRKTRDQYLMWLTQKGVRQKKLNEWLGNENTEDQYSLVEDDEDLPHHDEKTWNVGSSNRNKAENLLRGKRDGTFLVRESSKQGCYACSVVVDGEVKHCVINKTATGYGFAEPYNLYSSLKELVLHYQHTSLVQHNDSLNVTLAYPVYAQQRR

SMILES | IC50 (PI3Kα) | IC50 (PI3Kγ) | CC50 [1] | GI50 [2] | GI50 [3] | melting point | selectivity index (PI3Kγ)
COc1ccc(C(=O)N2N=C(c3ccc(I)cc3)CC2c2cccs2)cc1OC (centres unmarked) [3m, (3,4-Dimethoxyphenyl)(3-(4-iodophenyl)-5-(thiophen-2-yl)-4,5-dihydro-1H-pyrazol-1-yl)methanone] | 75.6 ± 2.4 µM | 2.52 ± 0.055 µM | 141 ± 5.6 µM | 57.9 ± 3.6 µM | 40.1 ± 1.4 µM | 69 to 71 °C | 
COc1ccc(C(=O)N2N=C(c3ccc(C)c(C)c3)CC2c2cccs2)cc1OC (centres unmarked) [3r, (3,4-Dimethoxyphenyl)(3-(3,4-dimethylphenyl)-5-(thiophen-2-yl)-4,5-dihydro-1H-pyrazol-1-yl)methanone] | 4.13 ± 0.062 µM | 1.37 ± 0.055 µM | 52.5 ± 3.2 µM | 6.2 ± 0.22 µM | 5.55 ± 0.41 µM | 104 to 106 °C | 
COc1ccc(C(=O)N2N=C(c3ccc(Br)cc3)CC2c2cccs2)cc1OC (centres unmarked) [3l, (3-(4-Bromophenyl)-5-(thiophen-2-yl)-4,5-dihydro-1H-pyrazol-1-yl)(3,4-dimethoxyphenyl)methanone] | 17.1 ± 0.58 µM | 5.11 ± 0.083 µM | 86.6 ± 3.5 µM | 20.1 ± 1.7 µM | 15.5 ± 0.87 µM | 71 to 73 °C | 
COc1ccc(C(=O)N2N=C(c3ccc(SC)cc3)CC2c2cccs2)cc1OC (centres unmarked) [3h, (3-(4-((λ^1-Sulfanyl)-λ^5-methyl)phenyl)-5-(thiophen-2-yl)-4,5-dihydro-1H-pyrazol-1-yl) (3,4-dimethoxyphenyl)methanone] | 64.4 ± 3.6 µM | 18.1 ± 1.7 µM | 180 ± 4.6 µM | 61.3 ± 2.3 µM | 53.3 ± 1.9 µM | 63 to 65 °C | 
COc1ccc(C(=O)N2N=C(c3ccc(OCc4ccccc4)cc3)CC2c2cccs2)cc1OC (centres unmarked) [3g, (3-(4-(Benzyloxy)phenyl)-5-(thiophen-2-yl)-4,5-dihydro-1H-pyrazol-1-yl)(3,4-dimethoxyphenyl)methanone] | 0.92 ± 0.056 µM | 26.9 ± 1.4 µM | 104 ± 5.4 µM | 31.6 ± 0.9 µM | 31.6 ± 1.4 µM | 60 to 62 °C | 
COc1ccc(C(=O)N2N=C(c3ccccc3F)CC2c2cccs2)cc1OC (centres unmarked) [3b, (3,4-Dimethoxyphenyl)(3-(2-fluorophenyl)-5-(thiophen-2-yl)-4,5-dihydro-1H-pyrazol-1-yl)methanone] | > 100 µM | 4.43 ± 0.2 µM | 152 ± 9.5 µM | 77.9 ± 3.9 µM | 50.2 ± 1.6 µM | 118 to 120 °C | 
COc1ccc(C(=O)N2N=C(c3ccc(OC)c4ccccc34)CC2c2cccs2)cc1OC (centres unmarked) [3o, (3,4-Dimethoxyphenyl)(3-(4-methoxynaphthalen-1-yl)-5-(thiophen-2-yl)-4,5-dihydro-1H-pyrazol-1-yl)methanone] | 8.81 ± 0.17 µM | 9.91 ± 0.26 µM | 137 ± 4.7 µM | 18.1 ± 0.85 µM | 16.9 ± 0.36 µM | 72 to 74 °C | 
O=c1cc(N2CCOCC2)oc2c(-c3ccccc3)cccc12 [LY294002, reference compound] |  |  | 51.3 ± 1.4 µM | 21.1 ± 2 µM | 26.5 ± 1.9 µM |  | 
COc1ccc(C(=O)N2N=C(c3ccc4ccccc4c3)CC2c2cccs2)cc1OC (centres unmarked) [3n, (3,4-Dimethoxyphenyl)(3-(naphthalen-2-yl)-5-(thiophen-2-yl)-4,5-dihydro-1H-pyrazol-1-yl)methanone] | 12 ± 1.1 µM | 1.79 ± 0.049 µM | 62.6 ± 2.6 µM | 11.1 ± 1.2 µM | 8.85 ± 0.31 µM | 149 to 151 °C | 
COc1ccc(C(=O)N2N=C(c3ccc(-c4ccccc4)cc3)CC2c2cccs2)cc1OC (centres unmarked) [3j, (3-([1,1’-Biphenyl]-4-yl)-5-(thiophen-2-yl)-4,5-dihydro-1H-pyrazol-1-yl)(3,4-dimethoxyphenyl)methanone] | 3.92 ± 0.064 µM | > 100 µM | 196 ± 10 µM | 75.7 ± 2.9 µM | 50.6 ± 1 µM | 154 to 156 °C | 
COc1ccc(C(=O)N2N=C(c3cccc([N+](=O)[O-])c3)CC2c2cccs2)cc1OC (centres unmarked) [3e, (3,4-Dimethoxyphenyl)(3-(3-nitrophenyl)-5-(thiophen-2-yl)-4,5-dihydro-1H-pyrazol-1-yl)methanone] | 2.08 ± 0.099 µM | 1.12 ± 0.081 µM | 58.4 ± 2.6 µM | 5.9 ± 0.2 µM | 5.51 ± 0.2 µM | 76 to 78 °C | 
COc1ccc(C(=O)N2N=C(c3cccc(F)c3)CC2c2cccs2)cc1OC (centres unmarked) [3c, (3,4-Dimethoxyphenyl)(3-(3-fluorophenyl)-5-(thiophen-2-yl)-4,5-dihydro-1H-pyrazol-1-yl)methanone] | 30.9 ± 1.3 µM | 4.21 ± 0.072 µM | 94.5 ± 4.3 µM | 26.3 ± 1.7 µM | 20.4 ± 2 µM | 50 to 51 °C | 
COc1ccc(C(=O)N2N=C(c3ccc(Br)cn3)CC2c2cccs2)cc1OC (centres unmarked) [3t, (3-(5-Bromopyridin-2-yl)-5-(thiophen-2-yl)-4,5-dihydro-1H-pyrazol-1-yl)(3,4-dimethoxyphenyl)methanone] | > 100 µM | 9.15 ± 0.14 µM | > 300 µM | 124 ± 9.7 µM | 110 ± 8.1 µM | 77 to 79 °C | 
COc1ccc(C(=O)N2N=C(c3ccc(OC)c(OC)c3)CC2c2cccs2)cc1OC (centres unmarked) [3q, (3,4-Dimethoxyphenyl)(3-(3,4-dimethoxyphenyl)-5-(thiophen-2-yl)-4,5-dihydro-1H-pyrazol-1-yl)methanone] | 5.24 ± 0.13 µM | 0.43 ± 0.036 µM | 41.3 ± 2.6 µM | 4.72 ± 0.12 µM | 4.22 ± 0.13 µM | 127 to 128 °C | 12.2
COc1ccc(C2=NN(C(=O)c3ccc(OC)c(OC)c3)C(c3cccs3)C2)cc1 (centres unmarked) [3f, (3,4-Dimethoxyphenyl)(3-(4-methoxyphenyl)-5-(thiophen-2-yl)-4,5-dihydro-1H-pyrazol-1-yl)methanone] | 26.6 ± 1.01 µM | 0.57 ± 0.044 µM | 112 ± 8.3 µM | 23.7 ± 1.2 µM | 15.1 ± 0.42 µM | 53 to 55 °C | 46.7
COc1ccc(C(=O)N2N=C(c3ccc(C)cc3)CC2c2cccs2)cc1OC (centres unmarked) [3i, (3,4-Dimethoxyphenyl)(5-(thiophen-2-yl)-3-(p-tolyl)-4,5-dihydro-1H-pyrazol-1-yl)methanone] | 89.5 ± 3.4 µM | 3.03 ± 0.085 µM | 151 ± 8.9 µM | 66.6 ± 1.2 µM | 48.7 ± 1.8 µM | 165 to 167 °C | 
